# Test results reported in patent USRE49311E1, “Bacillus thuringiensis RTI545 compositions and methods of use for benefiting plant growth and controlling plant pests” (priority 2016, dated 2022).
# How the values were obtained:
# [1] = tested on: corn rootworm (Diabrotica spp.); experiment: In-furrow corn field trials, corn rootworm-infested plots (18 trials, North America); type: in vivo; conditions: vs untreated, bifenthrin 112 g ai/Ha, RTI545 1.24 × 10^12 CFU/Ha, tefluthrin 168 g ai/Ha; for % Damage reduction, Heavy CRW Pressure / % Yield Increase, Heavy CRW Pressure: 5 trials; for % Damage reduction / % Yield Increase: 18 trials
# From the text: (§1) In-furrow treatments of corn with RTI545 were studied in multiple field trials in various locations in North America to evaluate effectiveness against wireworm (Melanotus spp.) and corn rootworm (Diabrotica spp.). The effects on yield and crop damage of several treatments compared to untreated controls for the individual North America trials were aggregated and summarized as an average for the trial in the following tables as % yield increase and % reduction in damage compared to the untreated controls. Seven trials were evaluated for wireworm. Eighteen trials were evaluated for corn rootworm. Five trials with heavy damage from corn rootworm were averaged separately.
# [2] = tested on: wireworm (Melanotus spp.); experiment: In-furrow corn field trials, wireworm-infested plots (7 trials, North America); type: in vivo; conditions: vs untreated, average of 7 trials; bifenthrin 56 g ai/Ha, RTI545 3 × 10^11 CFU/Ha, tefluthrin 168 g ai/Ha
# From the text: as §1
# [3] = tested on: root knot (RKN) nematode juveniles (J2); experiment: Nematode chemotaxis assay on agar plates; type: in vivo, Meloidogyne spp.; conditions: for Cf (chemotaxis factor) at 3 h / Cf (chemotaxis factor) at 5 h: Cf<0.5 repellent, >2 attractant
# Procedure: Similarly, activity of RTI545 against nematodes may also be due to compound(s) produced by the strain. A nematode chemotaxis assay on agar plates was conducted as described below to evaluate response of root knot (RKN) nematode juveniles (J2) to different concentrations of kanosamine and RTI545 supernatant in vitro.
# The test arena is shown schematically in FIG. 6. Nine-cm-diameter Petri dishes were filled with 15 ml 0.75% Phytagel (including 0.1% MgSO4.7H2O). […] was used, instead of water agar, so that nematode tracks could be observed under a microscope. Wells of 0.5 cm diameter which can accommodate approximately 50 μl of solution were made at opposite sides of the dishes at 2 cm from the center. The test samples were applied in the wells and left to diffuse for 1 hour with lids on the dishes, so a gradient around the wells could be established. Then, 75-100 J2 stage root-knot nematodes suspended in 5 μl of sterile distilled water were placed by pipette in the center 1.5 cm-diameter circle of the plate. When the surface tension of the water suspension was lost, the dishes were covered with lids and incubated in the dark on a leveled platform at 25° C. for […]. After incubation the plates were transferred to 4° C. to stop nematode movement for scoring at 2 h, 3 h and 5 h after setup. Three replicates were done for each test material.
# For scoring, the test arena was divided into sixteen zones, designated as 1-8 for attractive zones and a-h for repellent zones as shown in FIG. 6A. Nematodes attracted to the test substance would tend to move to the numbered (attractive) zones, resulting in clustering along the axis parallel to the orientation of the wells. Repelled nematodes would tend to move to the lettered (repellant) zones, resulting in clustering along the axis perpendicular to the orientation of the wells. The chemotaxis factor (Cf) was calculated by dividing the total number of nematodes in the attractant zones by the total number of nematodes in the repellent zones. A Cf greater than 2 meant attraction for the nematodes, while lower than 0.5 indicated repellence, and 0.5 to 2 was considered neutral.
# lesion nematode = experiment: Soil drench tests against lesion nematode; type: in vivo, Pratylenchus penetrans
# From the text: Similar tests wherein RTI545 was applied as a soil drench at the rate of 2.5×10^11 CFU/ha provided 71% reduction in lesion nematode numbers per root compared to 95% for abamectin. In soil drench tests applied to pots in the greenhouse with soil infested with lesion nematode eggs and adults (2000 individuals/pot) RTI545 at the rate of 2.5×10^13 CFU/ha provided 80% reduction in nematode numbers per root compared to 86% reduction by cadusafos.
# [4] = tested on: soybean cyst nematode (Heterodera glycines); experiment: Soybean cyst nematode soil drench assay, greenhouse; type: in vivo; conditions: day 70
# [5] = tested on: root knot nematode (RKN) eggs; experiment: Root knot nematode egg hatching assay, 24-well plates; type: in vivo, Meloidogyne incognita/hapla; conditions: for % Hatching after 7 days / % Hatching after 14 days: mean of 6 replicates ± SD
# Procedure: The following day, the optical density (OD) of 1:100 dilutions was measured at 600 nm to estimate the volume needed for inoculation of fermentation flasks. […] Bacteria were grown overnight (for 16 h) at 200 rpm at 30° C. Two ml of bacterial culture was saved to measure the OD and colony forming units (CFU). The remaining culture was centrifuged (2500 rpm, 15 min) and the supernatant was filter-sterilized through a 0.22 μm filter. […] The supernatant was kept at 4° C. until the initiation of the bioassay. […] A mixed culture of root knot nematodes (Meloidogyne incognita and M. hapla) was used. Nematode eggs were extracted from tomato roots by bleaching and cleaned using an Opti-prep centrifugation step followed by two washes in water. Before setting up the hatching assay, the percentage of early (eggs with a visible embryo) and late eggs (eggs with differentiated juveniles inside; […] Only fresh eggs (collected at the day of the initiation of the assay) were used for the bioassay. The assay was performed in 24-well tissue culture plates. […] Antibiotics were suspended in sterile distilled water. The final concentration of antibiotics in testing plates was 75 mg/L of penicillin and 75 mg/L of streptomycin. […] The addition of methyl cellulose increases the accuracy of adding the same number of inoculum to each treatment. The treatments were set up in 6 replications. Each plate was covered, wrapped in aluminum foil and placed in an incubator set at 25° C. […] For each time point and treatment, the percent hatching was calculated according to the formula: […] All treatments were supplemented with antibiotics (75 mg/L of penicillin and 75 mg/L of streptomycin) to prevent contamination. Data are means from 6 replicates± standard deviation of the means.
# [6] = tested on: Southern Corn Rootworm (SCRW) larvae; experiment: SCRW larvae choice feeding assay of corn seedlings; conditions: for Mean percent of SCRW larvae on treated portion of the filter paper / Mean percent of SCRW larvae on untreated portion of the filter paper: 3 days
# Procedure: Repellency was measured using a choice in vitro plate feeding assay of corn seedlings by SCRW larvae and scored after 72 hours as the percentage of SCRW larvae on the non-treated side of the plate. In the case of no repellency, an equal distribution of 50% on both the treated and non-treated half of the plate would be expected, indicating 0% repellency. In this experiment, the Bacillus thuringiensis RTI545 and Bacillus thuringiensis subsp. kurstaki HD-1 (HD-1), were evaluated in comparison to a water control after 3 days in the assay.
# The choice feeding assay for SCRW larvae using corn seedlings was also repeated to compare RTI545 to another Bacillus thuringiensis strain FD30 and kanosamine. […] Repellency was measured using a choice in vitro plate feeding assay of corn seedlings by SCRW larvae and scored after 72 hours as the percentage of SCRW larvae on the non-treated side of the plate. In the case of no repellency, an equal distribution of 50% on both the treated and non-treated half of the plate would be expected, indicating 0% repellency.
# [7] = RTI545 2.5 × 10^12 CFU/ha, Abamectin 0.01 ppm, VENERATE XC 500 mg/plant
# [8] = RTI545 2.5 × 10^13 CFU/ha, Abamectin 0.1 ppm
# [9] = kanosamine 100 μg/ml (alone or + FD30)
compound,measurement,setting,value
Cc1c(COC(=O)[C@@H]2[C@H](/C=C(\Cl)C(F)(F)F)C2(C)C)cccc1-c1ccccc1 (racemic) [Bifenthrin],"% Damage reduction, Heavy CRW Pressure",[1],45%
same,"% Yield Increase, Heavy CRW Pressure",[1],11%
same,% Damage reduction,[1],42%
same,% Yield Increase,[1],4%
same,% Yield Increase,[2],5%
Cc1c(F)c(F)c(COC(=O)[C@@H]2[C@H](/C=C(\Cl)C(F)(F)F)C2(C)C)c(F)c1F (racemic) [Tefluthrin],"% Damage reduction, Heavy CRW Pressure",[1],52%
same,"% Yield Increase, Heavy CRW Pressure",[1],16%
same,% Damage reduction,[1],46%
same,% Yield Increase,[1],3%
same,% Yield Increase,[2],5%
CC(=O)O [Acetic Acid],Cf (chemotaxis factor) at 3 h,[3]; acetic acid 1%,0.45
same,Cf (chemotaxis factor) at 5 h,[3]; acetic acid 1%,0.4
same,Cf (chemotaxis factor) at 2 h,"[3]; acetic acid 1%, data not shown",neutral
CCOP(=O)(SC(C)CC)SC(C)CC (stereo not shown) [cadusafos],Reduction in nematode numbers per root,"lesion nematode; soil drench to greenhouse pots, eggs and adults 2000 individuals/pot, RTI545 2.5×10^13 CFU/ha",86%
abamectin,Reduction in lesion nematode numbers per root,"lesion nematode; soil drench, RTI545 2.5×10^11 CFU/ha",95%
same,% Reduction of cysts,[4]; [7],79%
same,Number of cysts extracted,[4]; [7],31
same,% Reduction of cysts,[4]; [8],96%
same,Number of cysts extracted,[4]; [8],7
same,% Hatching after 7 days,[5]; abamectin 0.1 ppm,24.4 ± 2.9%
same,% Hatching after 14 days,[5]; abamectin 0.1 ppm,27.8 ± 5.7%
same,% Hatching after 7 days,[5]; abamectin 1.0 ppm,4.9 ± 0.9%
same,% Hatching after 14 days,[5]; abamectin 1.0 ppm,8.5 ± 1.6%
same,Egg hatching inhibition,"[5]; rate of 1 ppm, after 14 days",72%
kanosamine,Mean percent of SCRW larvae on treated portion of the filter paper,[6]; kanosamine 10 μg/ml,16.67%
same,Mean percent of SCRW larvae on untreated portion of the filter paper,[6]; kanosamine 10 μg/ml,83.33%
same,Mean percent of SCRW larvae on treated portion of the filter paper,[6]; [9],16.67%
same,Mean percent of SCRW larvae on untreated portion of the filter paper,[6]; [9],83.33%
same,Repellent effects on SCRW,"[6]; all dilution rates between 0.1 μg/ml and 100.0 μg/ml, at 24 h, two separate bioassays",repellent effects
same,Feeding damage on corn,"[6]; at 3 d, choice assay",minimal feeding damage
same,Repellency to SCRW,"[6]; second test, filter paper treated with 30.0 ug/ml, out to 5 days",complete repellency
same,Avoidance response of SCRW,[6]; treated filter paper at 10 and 100 μg/ml,80%
same,Hatching rate higher than in water control,[5]; after seven days,up to 80%
same,% Hatching after 7 days,[5]; kanosamine 1 μg/ml,35.9 ± 5.2%
same,% Hatching after 14 days,[5]; kanosamine 1 μg/ml,40.1 ± 6.8%
same,% Hatching after 7 days,[5]; kanosamine 10 μg/ml,39.4 ± 3%
same,% Hatching after 14 days,[5]; kanosamine 10 μg/ml,42.1 ± 12.1%
same,% Hatching after 7 days,[5]; kanosamine 100 μg/ml,32.4 ± 4.8%
same,% Hatching after 14 days,[5]; kanosamine 100 μg/ml,41.6 ± 6.8%
same,Cf (chemotaxis factor),"[3]; all tested kanosamine rates (1, 10 and 100 μg/ml) and all time points",higher than 0.5
same,Cf (chemotaxis factor) at 3 h,[3]; kanosamine 1 μg/ml,1.0
same,Cf (chemotaxis factor) at 5 h,[3]; kanosamine 1 μg/ml,1.0
same,Cf (chemotaxis factor) at 3 h,[3]; kanosamine 10 μg/ml,0.6
same,Cf (chemotaxis factor) at 5 h,[3]; kanosamine 10 μg/ml,0.7
same,Cf (chemotaxis factor) at 3 h,[3]; kanosamine 100 μg/ml,0.6
same,Cf (chemotaxis factor) at 5 h,[3]; kanosamine 100 μg/ml,0.7
